Patent publication US4687778A, “Anti-amnestic agent” (Kabushiki Kaisha Yakult Honsha, priority 1984, dated 1987)
Residues, ends and D or L forms follow the SMILES beside them. *: point of attachment. Cbz = O=C(OCc1ccccc1)*; Boc = CC(C)(C)OC(=O)*; CH2Cl = ClC*

Legend:
[1] = system: experimental amnestic rats; test: passive avoidance response of rats (scopolamine-induced amnesia), retention test; type: in vivo, male Wister SLC rat; conditions: scopolamine 3 mg/kg i.p.
Description: The method of assay of the anti-amnestic action was carried out according to the method reported by A. Kubota et al. in Int. […] A passive avoidance chamber used in this test was surrounded with inside-visible transparent plastic plates and included an electrifiable grid floor (30 cm in length and 30 cm in width) capable of being derivered with an electric current of 1.7 mA in strength for electric foot shock and a platform (15 cm in length, 15 cm in width and 4 cm in height) placed at the right back corner thereof. A male Wister SLC rat (weighing 100-150 g) was placed in the passive avoidance chamber and, when he stepped down on the floor, the electric current was sent to the grid continuously until he went up on the platform. Repeating this test with another rat, the rats stayed on the platform for more than 15 seconds were taken out of the chamber, being regarded to have learned the situation. This electric shock was normally 2 or 3 times. To avoid any difference in the rats, those required 10 seconds for the first step-down and those stepped down on the floor at least 5 times were excluded. Among the learned or trained rats, the first control group of them were intraperitoneally administered with 0.5% CMC solution and the other groups of them were intraperitoneally administered with scopolamine hydrobromide in a dose of 3 mg/Kg to prepare experimental amnestic rats. The prolinal derivatives of the general formula to be tested were in each case intraperitoneally or orally administered to the rats in an amount shown in Table 1 or 2 one after completion of the learning. In each case, the polinal derivatives are used as having been dissolved or suspended in a 0.5% CMC solution.

Toxicity test (LD50) = conditions: mouse, in vivo; ip, ICR male mice
Description: Using 4-weeks-old male ICR mice weighing 15-20 g, the value of LD50 was calculated by orally or intraperitoneally administering the prolinal derivatives to the mice and counting the deceased mice according to the conventional method.

[2] = system: proline-specific endopeptidase (post-proline cleaving enzyme); conditions: cited from earlier work

Q: For `CC(C)(C)OC(=O)N[C@@H](CO)C(=O)N1CCC[C@H]1C=O` [t-Butyloxycarbonyl-seryl-prolinal, t-butyloxycarbonyl-seryl-prolinal] (Boc-Ser-Pro-aldehyde), which “Retention Test Latency, 24 hr” value ([1]; 2.9 mg/kg i.p. after training) is on record?
A: > 300.0 s

Q: And the “Retention Test Latency, 48 hr” value ([1]; 2.9 mg/kg i.p. after training)?
A: > 300.0 s

Q: And the “Retention Test Latency, 24 hr” value ([1]; 2.9 mg/kg p.o. after training)?
A: 262.9 s

Q: And the “Retention Test Latency, 48 hr” value ([1]; 2.9 mg/kg p.o. after training)?
A: 185.2 s

Q: And the LD50 (Toxicity test (LD50))?
A: > 1000 mg/kg

Q: Which “Retention Test Latency, 24 hr” value ([1]; 2.0 mg/kg i.p. after training) does the source give for `C[C@H](NC(=O)OCc1ccccc1)C(=O)N1CCC[C@H]1C=O` [N--Benzyloxycarbonyl-alanyl-prolinal, N-benzyloxycarbonyl-alanyl-prolinal] (Cbz-Ala-Pro-aldehyde) here?
A: 189.0 s

Q: And the “Retention Test Latency, 48 hr” value ([1]; 2.0 mg/kg i.p. after training)?
A: 203.4 s

Q: And the “Retention Test Latency, 24 hr” value ([1]; 2.0 mg/kg p.o. after training)?
A: 165.4 s

Q: And the “Retention Test Latency, 48 hr” value ([1]; 2.0 mg/kg p.o. after training)?
A: 155.2 s

Q: And the LD50 (Toxicity test (LD50))?
A: 954 mg/kg

Q: Which “Retention Test Latency, 24 hr” value ([1]; 3.6 mg/kg i.p. after training) does the source give for `CC(C)(C)OC(=O)N[C@@H](Cc1ccc(O)cc1)C(=O)N1CCC[C@H]1C=O` [t-Butyloxycarbonyl-tyrosyl-prolinal, t-butyloxycarbonyl-tyrosyl-prolinal] (Boc-Tyr-Pro-aldehyde) here?
A: 250.8 s

Q: What about the “Retention Test Latency, 48 hr” value ([1]; 3.6 mg/kg i.p. after training) of the same compound?
A: 206.9 s

Q: What about the “Retention Test Latency, 24 hr” value ([1]; 3.6 mg/kg p.o. after training) of the same compound?
A: 180.5 s

Q: And the “Retention Test Latency, 48 hr” value ([1]; 3.6 mg/kg p.o. after training)?
A: 192.1 s

Q: What about the LD50 (Toxicity test (LD50)) of the same compound?
A: 933 mg/kg

Q: For `CC(C)[C@H](NC(=O)OCc1ccccc1)C(=O)N1CCC[C@H]1C=O` [N--Benzyloxycarbonyl-valyl-prolinal, N-benzyloxycarbonyl-valyl-prolinal] (Cbz-Val-Pro-aldehyde), which “Retention Test Latency, 24 hr” value ([1]; 2.2 mg/kg i.p. after training) is on record?
A: > 300.0 s

Q: And the “Retention Test Latency, 48 hr” value ([1]; 2.2 mg/kg i.p. after training)?
A: > 300.0 s

Q: And the “Retention Test Latency, 24 hr” value ([1]; 2.2 mg/kg p.o. after training)?
A: 254.8 s

Q: And the “Retention Test Latency, 48 hr” value ([1]; 2.2 mg/kg p.o. after training)?
A: 210.5 s

Q: What about the LD50 (Toxicity test (LD50)) of the same compound?
A: 825 mg/kg

Q: With `CC(=O)NCC(=O)N1CCC[C@H]1C=O` [Acetyl-glycyl-prolinal, acetyl-glycyl-prolinal] (Ac-Gly-Pro-aldehyde) as the compound, how does the “Retention Test Latency, 24 hr” value ([1]; 1.3 mg/kg i.p. after training) read?
A: 274.9 s

Q: And the “Retention Test Latency, 48 hr” value ([1]; 1.3 mg/kg i.p. after training)?
A: 198.6 s

Q: And the “Retention Test Latency, 24 hr” value ([1]; 1.3 mg/kg p.o. after training)?
A: 221.6 s

Q: What about the “Retention Test Latency, 48 hr” value ([1]; 1.3 mg/kg p.o. after training) of the same compound?
A: 143.2 s

Q: And the LD50 (Toxicity test (LD50))?
A: > 1000 mg/kg

Q: Which “inhibitory action to the endopeptidase” value [2] does the source give for `O=C(NCC(=O)N1CCC[C@H]1C(=O)CCl)OCc1ccccc1` [N-benzyloxycarbonylglycyl-L-prolyl-chloromethane] (Cbz-Gly-Pro-CH2Cl) here?
A: strong inhibitory action

Q: Which LD50 (Toxicity test (LD50)) does the source give for `O=C[C@@H]1CCCN1C(=O)[C@@H]1CCCN1C(=O)OCc1ccccc1` [N--Benzyloxycarbonyl-prolyl-prolinal, N-benzyloxycarbonyl-prolyl-prolinal] (Cbz-Pro-Pro-aldehyde) here?
A: > 1000 mg/kg

Q: What does the source list for `CC(=O)N1CCC[C@H]1C(=O)N1CCC[C@H]1C=O` [Acetyl-prolyl-prolinal, acetyl-prolyl-prolinal] (Ac-Pro-Pro-aldehyde)?
A: Retention Test Latency, 24 hr ([1]; 2.3 mg/kg i.p. after training): > 300.0 s; Retention Test Latency, 48 hr ([1]; 2.3 mg/kg i.p. after training): > 300.0 s; Retention Test Latency, 24 hr ([1]; 2.3 mg/kg p.o. after training): 204.2 s; Retention Test Latency, 48 hr ([1]; 2.3 mg/kg p.o. after training): 177.4 s; LD50 (Toxicity test (LD50)): 767 mg/kg

Q: With `CC(C)C[C@H](NC(=O)OCc1ccccc1)C(=O)N1CCC[C@H]1C=O` [N--Benzyloxycarbonyl-leucyl-prolinal, N-benzyloxycarbonyl-leucyl-prolinal] (Cbz-Leu-Pro-aldehyde) as the compound, how does the “Retention Test Latency, 24 hr” value ([1]; 3.5 mg/kg i.p. after training) read?
A: > 300.0 s

Q: What about the “Retention Test Latency, 48 hr” value ([1]; 3.5 mg/kg i.p. after training) of the same compound?
A: > 300.0 s

Q: What about the “Retention Test Latency, 24 hr” value ([1]; 3.5 mg/kg p.o. after training) of the same compound?
A: 281.6 s

Q: And the “Retention Test Latency, 48 hr” value ([1]; 3.5 mg/kg p.o. after training)?
A: 219.5 s

Q: And the LD50 (Toxicity test (LD50))?
A: > 1000 mg/kg

Q: For `O=C[C@@H]1CCCN1C(=O)CNC(=O)OCc1ccccc1` [N--Benzyloxycarbonyl-glycyl-prolinal, N-benzyloxycarbonyl-glycyl-prolinal] (Cbz-Gly-Pro-aldehyde), which “Retention Test Latency, 24 hr” value ([1]; 1.9 mg/kg i.p. after training) is on record?
A: > 300.0 s

Q: What about the “Retention Test Latency, 48 hr” value ([1]; 1.9 mg/kg i.p. after training) of the same compound?
A: > 300.0 s

Q: And the “Retention Test Latency, 24 hr” value ([1]; 1.9 mg/kg p.o. after training)?
A: 230.4 s

Q: What about the “Retention Test Latency, 48 hr” value ([1]; 1.9 mg/kg p.o. after training) of the same compound?
A: 175.5 s

Q: What about the LD50 (Toxicity test (LD50)) of the same compound?
A: > 1000 mg/kg

Q: Which results are given for `CC(C)(C)OC(=O)N[C@@H](Cc1ccccc1)C(=O)N1CCC[C@H]1C=O` [t-Butyloxycarbonyl-phenylalanyl-prolinal, t-butyloxycarbonyl-phenylalanyl-prolinal] (Boc-Phe-Pro-aldehyde)?
A: Retention Test Latency, 24 hr ([1]; 3.0 mg/kg i.p. after training): > 300.0 s; Retention Test Latency, 48 hr ([1]; 3.0 mg/kg i.p. after training): 264.3 s; Retention Test Latency, 24 hr ([1]; 3.0 mg/kg p.o. after training): > 300.0 s; Retention Test Latency, 48 hr ([1]; 3.0 mg/kg p.o. after training): 250.2 s; LD50 (Toxicity test (LD50)): > 1000 mg/kg

Q: What does the source list for `C[C@H](NC(=O)OC(C)(C)C)C(=O)N1CCC[C@H]1C=O` [t-Butyloxycarbonyl-alanyl-prolinal, t-butyloxycarbonyl-alanyl-prolinal] (Boc-Ala-Pro-aldehyde)?
A: Retention Test Latency, 24 hr ([1]; 1.8 mg/kg i.p. after training): 293.5 s; Retention Test Latency, 48 hr ([1]; 1.8 mg/kg i.p. after training): 250.4 s; Retention Test Latency, 24 hr ([1]; 1.8 mg/kg p.o. after training): 239.8 s; Retention Test Latency, 48 hr ([1]; 1.8 mg/kg p.o. after training): 226.7 s; LD50 (Toxicity test (LD50)): 796 mg/kg
